Like-named read-outs stand apart in the source and are kept apart here.
Biological target: T1, IRAK4 protein (Homo sapiens, UniProt Q9NWZ3)
T1 sequence (Q9NWZ3 1-460): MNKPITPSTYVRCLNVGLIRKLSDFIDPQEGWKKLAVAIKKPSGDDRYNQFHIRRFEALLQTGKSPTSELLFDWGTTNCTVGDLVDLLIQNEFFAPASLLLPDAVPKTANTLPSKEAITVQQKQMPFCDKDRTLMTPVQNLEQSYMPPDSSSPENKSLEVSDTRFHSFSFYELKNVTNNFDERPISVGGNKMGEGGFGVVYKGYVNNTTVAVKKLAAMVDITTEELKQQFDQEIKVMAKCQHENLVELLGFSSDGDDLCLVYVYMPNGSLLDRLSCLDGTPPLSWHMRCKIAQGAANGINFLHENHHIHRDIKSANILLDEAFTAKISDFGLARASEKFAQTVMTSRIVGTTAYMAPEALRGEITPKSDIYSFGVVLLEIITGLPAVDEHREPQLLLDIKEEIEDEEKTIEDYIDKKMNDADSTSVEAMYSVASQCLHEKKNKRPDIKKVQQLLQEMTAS
Assay: IRAK4 Degradation Assay in THP-1 Cells (Western Blot)
Type: cell-based
Parameters: endogenous in cells; host or cells: THP-1 cells
Conditions: 24 hours, 0.0128 to 1000 nM, IRAK4 protein level by Western Blot; for Dmax: read-out: Dmax%
Method: In a 6-well cell culture plate, an appropriate number of THP-1 cells were seeded. The plate was placed in a 5% CO2 incubator at 37°C for overnight culture. Then, the test compound's dimethyl sulfoxide solution was added, with the final concentration ranging from 0.0128 to 1000 nM. After continuous culture for 24 hours, the culture medium was removed, and the cells were collected in a 1.5 mL centrifuge tube. After adding lysis buffer and grinding thoroughly, the mixture was placed on ice for 30 minutes. It was then centrifuged at 15,000 xg and 4°C for 20 minutes. The supernatant was taken, and the level of IRAK4 protein was detected by Western Blot.

Row | SMILES | DC50 (THP-1 cells, read-out: DC50) | Dmax (THP-1 cells) | DC50 (THP-1 cells) | Dmax (THP-1, THP-1 cells) | Dmax% (THP-1 cells)
1 | Cn1c(=O)n(C2CCC(=O)NC2=O)c2cccc(CN3CC4(CCN(CCN5CCC6(CC5)Cc5cc(NC(=O)c7cnn8cccnc78)c(N7CCC(CO)CC7)cc5O6)CC4)C3)c21 (stereo not drawn) [Compound 33] |  | 94.8% | 1.66 nM |  | 
2 | Cn1c(=O)n(C2CCC(=O)NC2=O)c2cccc(N3CCC(CCN4CCC5(CC4)Cc4cc(NC(=O)c6cnn7cccnc67)c(N6CCC(CO)CC6)cc4O5)CC3)c21 (stereo not drawn) [Example 96] | 1.65 nM |  |  | 92% | 
3 | COC1(CN2CCC3(CC2)Cc2cc(NC(=O)c4cnn5cccnc45)c(N4CCC(CO)CC4)cc2O3)CCN(c2cccc3c2n(C)c(=O)n3C2CCC(=O)NC2=O)CC1 (stereo not drawn) [Example 79] | 1.55 nM |  |  | 89.5% | 
4 | Cn1c(=O)n(C2CCC(=O)NC2=O)c2cccc(N3CCC(O)(CC(=O)N4CCC5(CC4)Cc4cc(NC(=O)c6cnn7cccnc67)c(N6CCC(CO)CC6)cc4O5)CC3)c21 (stereo not drawn) [Example 81] | 1.02 nM |  |  | 90.2% | 
5 | Cn1c(=O)n(C2CCC(=O)NC2=O)c2cccc(C#CCOC3CCN(CCN4CCC5(CC4)Cc4cc(NC(=O)c6cnn7cccnc67)c(N6CCC(CO)CC6)cc4O5)CC3)c21 (stereo not drawn) [Compound 19] | 2.18 nM |  |  | 87.9% | 
6 | Cn1c(=O)n(C2CCC(=O)NC2=O)c2cccc(C3CC(CN4CCC5(CC4)Cc4cc(NC(=O)c6cnn7cccnc67)c(N6CCC(CO)CC6)cc4O5)C3)c21 (stereo not drawn) [Example 80] | 0.64 nM |  |  | 83.4% | 
7 | O=C1CCC(N2Cc3c(CN4CCC(CCN5CCC6(CC5)Cc5cc(NC(=O)c7cnn8cccnc78)c(N7CCC(CO)CC7)cc5O6)CC4)cccc3C2=O)C(=O)N1 (stereo not drawn) [Compound 64] | 1.3 nM |  |  | 89.3% | 
8 | O=C1CCC(N2C(=O)c3cc(F)c(N4CCC(CN5CCC6(CC5)Cc5cc(NC(=O)c7cnn8cccnc78)c(N7CCC(CO)CC7)cc5O6)CC4)cc3C2=O)C(=O)N1 (stereo not drawn) [Example 97] | 7.85 nM |  |  | 87.9% | 
9 | O=C1CCC(N2Cc3cc(N4CCC(CN5CCC6(CC5)Cc5cc(NC(=O)c7cnn8cccnc78)c(N7CCC(CO)CC7)cc5O6)CC4)ccc3C2=O)C(=O)N1 (single isomer, unassigned) [Example 85] | 0.66 nM |  |  |  | 89.8%
10 | Cn1c(=O)n(C2CCC(=O)NC2=O)c2cccc(C#CCOCCNCCN3CCC4(CC3)Cc3cc(NC(=O)c5cnn6cccnc56)c(N5CCC(CO)CC5)cc3O4)c21 (stereo not drawn) [Compound 59] | 1.17 nM |  |  | 88.6% | 
11 | O=C1CCC(N2C(=O)c3ccc(N4CCC(CN5CCC6(CC5)Cc5cc(NC(=O)c7cnn8cccnc78)c(N7CCC(CO)CC7)cc5O6)CC4)cc3C2=O)C(=O)N1 (stereo not drawn) [Example 82] | 3.44 nM |  |  | 85.6% | 
12 | O=C1CCC(N2C(=O)c3cc(F)c(N4CCC(CCN5CCC6(CC5)Cc5cc(NC(=O)c7cnn8cccnc78)c(N7CCC(CO)CC7)cc5O6)CC4)cc3C2=O)C(=O)N1 (stereo not drawn) [Compound 72] | 7.7 nM |  |  | 92.6% | 
13 | Cn1c(=O)n(C2CCC(=O)NC2=O)c2cccc(CN3CCC4(CC3)CN(CCN3CCC5(CC3)Cc3cc(NC(=O)c6cnn7cccnc67)c(N6CCC(CO)CC6)cc3O5)C4)c21 (stereo not drawn) [Compound 32] |  | 95.4% | 1.53 nM |  | 
14 | Cn1c(=O)n(C2CCC(=O)NC2=O)c2cccc(CN3CCC(CCN4CCC5(CC4)Cc4cc(NC(=O)c6cnn7cccnc67)c(N6CCC(CO)CC6)cc4O5)CC3)c21 (stereo not drawn) [Compound 1] | 1.09 nM |  |  | 91.9% | 
15 | Cn1c(=O)n(C2CCC(=O)NC2=O)c2cccc(C#CCO[C@H]3CC[C@H](C(=O)N4CCC5(CC4)Cc4cc(NC(=O)c6cnn7cccnc67)c(N6CCC(CO)CC6)cc4O5)CC3)c21 (relative stereo) [Compound 74] | 2.78 nM |  |  | 86.2% | 
16 | O=C1CCC(N2Cc3cc(N4CCC(CN5CCC6(CC5)Cc5cc(NC(=O)c7cnn8cccnc78)c(N7CCC(CO)CC7)cc5O6)CC4)ccc3C2=O)C(=O)N1 (single isomer, unassigned) [Example 84] | 1.13 nM |  |  | 88.3% | 
17 | Cn1c(=O)n(C2CCC(=O)NC2=O)c2cccc(C3CCC(CN4CCC5(CC4)Cc4cc(NC(=O)c6cnn7cccnc67)c(N6CCC(CO)CC6)cc4O5)CC3)c21 (stereo not drawn) [Example 98] | 1.1 nM |  |  | 88.6% | 

Further lines, with some results ahead:

Row | DC50 (THP-1 cells, read-out: DC50) | Dmax (THP-1 cells) | SMILES | DC50 (THP-1 cells) | Dmax (THP-1, THP-1 cells) | Dmax% (THP-1 cells)
18 | 3.08 nM | 88.3% | Cn1c(=O)n(C2CCC(=O)NC2=O)c2cccc(C#CCOC3CCN(CCN4CCC5(Cc6cc(NC(=O)c7coc8cccnc78)c(N7CCC(CO)CC7)cc6O5)C4)CC3)c21 (stereo not drawn) [Compound 23] |  |  | 
19 | 2 nM | 83.9% | Cn1c(=O)n(C2CCC(=O)NC2=O)c2cccc(C#CCO[C@H]3CC[C@H](CN4CCC5(Cc6cc(NC(=O)c7cnn8cccnc78)c(N7CCC(CO)CC7)cc6O5)C4)CC3)c21 (stereo partly drawn) [Compound 51] |  |  | 
20 | 2.77 nM | 77.5% | Cn1c(=O)n(C2CCC(=O)NC2=O)c2cccc(C#CCO[C@H]3CC[C@H](CN4CCC5(CC4)Cc4cc(NC(=O)c6cnn7cccnc67)c(N6CCC(CO)CC6)cc4C5)CC3)c21 (stereo partly drawn) [Compound 53] |  |  | 
21 | 5.4 nM | 89% | Cc1cc(-c2nc(C(=O)Nc3cc4c(cc3N3CCC(O)CC3)OC3(CCN(C[C@H]5CC[C@H](OCC#Cc6cccc7c6n(C)c(=O)n7C6CCC(=O)NC6=O)CC5)CC3)C4)co2)ccn1 (stereo partly drawn) [Example 88] |  |  | 
22 | 6.02 nM | 84.6% | Cc1cc(-c2nc(C(=O)Nc3cc4c(cc3N3CCC(CO)CC3)OC3(CCN(C[C@H]5CC[C@H](OCC#Cc6cccc7c6n(C)c(=O)n7C6CCC(=O)NC6=O)CC5)CC3)C4)co2)ccn1 (stereo partly drawn) [Example 89] |  |  | 
23 | 3.58 nM | 91.6% | Cn1c(=O)n(C2CCC(=O)NC2=O)c2cccc(C#CCOC3CCN(CCN4CCC5(CC4)Cc4cc(NC(=O)c6coc7cccnc67)c(N6CCC(CO)CC6)cc4O5)CC3)c21 (stereo not drawn) [Compound 21] |  |  | 
24 | 3.5 nM | 91.1% | Cn1c(=O)n(C2CCC(=O)NC2=O)c2cccc(C#CCO[C@H]3CC[C@H](CN4CCC5(Cc6cc(NC(=O)c7coc8cccnc78)c(N7CCC(CO)CC7)cc6O5)C4)CC3)c21 (stereo partly drawn) [Compound 54] |  |  | 
25 | 3.69 nM | 85.6% | Cn1c(=O)n(C2CCC(=O)NC2=O)c2cccc(C#CCO[C@H]3CC[C@@H](CN4CCC5(Cc6cc(NC(=O)c7cnn8cccnc78)c(N7CCC(CO)CC7)cc6O5)C4)CC3)c21 (stereo partly drawn) [Compound 58] |  |  | 
26 | 3.4 nM | 89.2% | Cn1c(=O)n(C2CCC(=O)NC2=O)c2cccc(CN3CCC(CCN4CCC5(CC4)Oc4cc(NC(=O)c6coc7cccnc67)c(N6CCC(CO)CC6)cc4O5)CC3)c21 (stereo not drawn) [Compound 14] |  |  | 
27 | 2.24 nM | 87.1% | Cn1c(=O)n(C2CCC(=O)NC2=O)c2cccc(C#CCO[C@H]3CC[C@H](CN4CCC5(CC4)Cc4cc(NC(=O)c6cnn7cc(CO)cnc67)c(N6CCC(CO)CC6)cc4O5)CC3)c21 (stereo partly drawn) [Example 90] |  |  | 
28 | 7.12 nM | 92.8% | Cn1c(=O)n(C2CCC(=O)NC2=O)c2cccc(C#CCOC3CCN(CCN4CCC5(CC4)Oc4cc(NC(=O)c6coc7cccnc67)c(N6CCC(CO)CC6)cc4O5)CC3)c21 (stereo not drawn) [Compound 29] |  |  | 
29 | 5.25 nM | 89.2% | Cn1c(=O)n(C2CCC(=O)NC2=O)c2cccc(C#CCO[C@H]3CC[C@H](CN4CCC5(CC4)Cc4cc(NC(=O)c6coc7cccnc67)c(N6CCC(CO)CC6)cc4C5)CC3)c21 (stereo partly drawn) [Compound 52] |  |  | 
30 | 2.98 nM | 86.2% | Cn1c(=O)n(C2CCC(=O)NC2=O)c2cccc(C#CCO[C@H]3CC[C@H](CN4CCC5(CC4)Cc4cc(NC(=O)c6cnn7cc(Cl)cnc67)c(N6CCC(O)CC6)cc4O5)CC3)c21 (stereo partly drawn) [Example 86] |  |  | 
31 | 6.38 nM | 84.9% | COCC1CCN(c2cc3c(cc2NC(=O)c2cnn4cccnc24)CC2(CCN(C[C@H]4CC[C@H](OCC#Cc5cccc6c5n(C)c(=O)n6C5CCC(=O)NC5=O)CC4)CC2)O3)CC1 (stereo partly drawn) [Compound 44] |  |  | 
32 | 7.79 nM | 90.4% | Cn1c(=O)n(C2CCC(=O)NC2=O)c2cccc(C#CCO[C@H]3CC[C@@H](CN4CCC5(CC4)Cc4cc(NC(=O)c6coc7cccnc67)c(N6CCC(CO)CC6)cc4O5)CC3)c21 (stereo partly drawn) [Compound 56] |  |  | 
33 | 4.06 nM | 90% | Cn1c(=O)n(C2CCC(=O)NC2=O)c2cccc(C#CCO[C@H]3CC[C@H](CN4CCC5(CC4)Cc4cc(NC(=O)c6cnn7cc(C#N)cnc67)c(N6CCC(CO)CC6)cc4O5)CC3)c21 (stereo partly drawn) [Example 87] |  |  | 
34 | 9.65 nM | 85.1% | Cn1c(=O)n(C2CCC(=O)NC2=O)c2cccc(CN3CCC(CCN4CCC5(CC4)Cc4cc(NC(=O)c6cnn7cccnc67)c(N6CCN(CC(F)F)CC6)cc4O5)CC3)c21 (stereo not drawn) [Compound 6] |  |  | 
35 | 3.38 nM | 86.5% | Cn1c(=O)n(C2CCC(=O)NC2=O)c2cccc(C#CCOC3CCN(CCN4CCC5(CC4)Oc4cc(NC(=O)c6cnn7cccnc67)c(N6CCC(CO)CC6)cc4O5)CC3)c21 (stereo not drawn) [Compound 28] |  |  | 
36 | 4.14 nM | 93.5% | Cn1c(=O)n(C2CCC(=O)NC2=O)c2cccc(CN3CCC(CCN4CCC5(CC4)Cc4cc(NC(=O)c6coc7cccnc67)c(N6CCC(CO)CC6)cc4O5)CC3)c21 (stereo not drawn) [Compound 3] |  |  | 

Source: EP4725946A1, “IRAK4 DEGRADATION AGENT AND USE THEREOF” (Guangzhou Unirise Pharmaceutical Co., Ltd., priority 2023, dated 2024)
